Source: patent US20170190671A1, “BIS(ARYL)CATECHOL DERIVATIVES AS HERBICIDES” (E I DU PONT DE NEMOURS AND COMPANY, priority 2014, published 2017)

How the values were obtained:
Assay type in all cases: in vivo
[1] = test system: barnyardgrass (Echinochloa crus-galli); assay: Test B flooded paddy; conditions: Echinochloa crus-galli, 336 h; 250 g ai/ha, Flood, 13 to 15 days, scale 0 (no effect) to 100 (complete control); read-out: Plant response rating, Barnyardgrass
How it was run: (§1)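 Ratings were visual and made relative to untreated controls after 13 to 15 greenhouse days.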

[2] = test system: ducksalad (Heteranthera limosa); assay: Test B flooded paddy; conditions: Heteranthera limosa, 336 h; 250 g ai/ha, Flood, 13 to 15 days, scale 0 (no effect) to 100 (complete control); read-out: Plant response rating, Ducksalad
How it was run: as §1

[3] = test system: rice (Oryza sativa); assay: Test B flooded paddy; conditions: Oryza sativa, 336 h; 250 g ai/ha, Flood, 13 to 15 days, scale 0 (no effect) to 100 (complete control); read-out: Plant response rating, Rice
How it was run: as §1

[4] = test system: sedge, umbrella (small-flower umbrella sedge, Cyperus difformis); assay: Test B flooded paddy; conditions: Cyperus difformis, 336 h; 250 g ai/ha, Flood, 13 to 15 days, scale 0 (no effect) to 100 (complete control); read-out: Plant response rating, Sedge, Umbrella
How it was run: as §1

[5] = test system: Italian ryegrass (Lolium multiflorum); assay: Test A preemergence; conditions: Lolium multiflorum, pre-emergence, 240 h, 1000 g ai/ha, 0 to 100 scale, read-out: Plant response rating, Ryegrass, Italian
How it was run: (§2)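 Greenhouse pot test, loam/sand soil. Formulation: non-phytotoxic solvent mix plus surfactant. Pre: directed spray onto soil after sowing. Post: plants at 1–2 leaf, 2–10 cm. Rated visually vs untreated controls at ~10 d, 0 (no effect) to 100 (complete control).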

[6] = test system: barnyardgrass (Echinochloa crus-galli); assay: Test A preemergence; conditions: Echinochloa crus-galli, pre-emergence, 240 h, 1000 g ai/ha, 0 to 100 scale, read-out: Plant response rating, Barnyardgrass
How it was run: as §2

[7] = test system: giant foxtail (Setaria faberii); assay: Test A preemergence; conditions: Setaria faberi, pre-emergence, 240 h, 1000 g ai/ha, 0 to 100 scale, read-out: Plant response rating, Foxtail, Giant
How it was run: as §2

[8] = test system: kochia (Kochia scoparia); assay: Test A preemergence; conditions: Bassia scoparia, pre-emergence, 240 h, 1000 g ai/ha, 0 to 100 scale, read-out: Plant response rating, Kochia
How it was run: as §2

[9] = test system: pigweed (Amaranthus retroflexus); assay: Test A preemergence; conditions: Amaranthus retroflexus, pre-emergence, 240 h, 1000 g ai/ha, 0 to 100 scale, read-out: Plant response rating, Pigweed
How it was run: as §2

[10] = test system: ragweed (common ragweed, Ambrosia elatior); assay: Test A preemergence; conditions: Ambrosia artemisiifolia, pre-emergence, 240 h, 1000 g ai/ha, 0 to 100 scale, read-out: Plant response rating, Ragweed
How it was run: as §2

[11] = test system: Italian ryegrass (Lolium multiflorum); assay: Test A postemergence; conditions: Lolium multiflorum, post-emergence, 240 h, 1000 g ai/ha, 0 to 100 scale, read-out: Plant response rating, Ryegrass, Italian
How it was run: as §2

[12] = test system: barnyardgrass (Echinochloa crus-galli); assay: Test A postemergence; conditions: Echinochloa crus-galli, post-emergence, 240 h, 1000 g ai/ha, 0 to 100 scale, 0 no effect, 100 complete control, read-out: Plant response rating, Barnyardgrass
How it was run: as §2

[13] = test system: blackgrass (Alopecurus myosuroides); assay: Test A postemergence; conditions: Alopecurus myosuroides, post-emergence, 240 h, 1000 g ai/ha, 0 to 100 scale, read-out: Plant response rating, Blackgrass
How it was run: as §2

[14] = test system: corn (Zea mays); assay: Test A postemergence; conditions: Zea mays, post-emergence, 240 h, 1000 g ai/ha, 0 to 100 scale
How it was run: as §2

[15] = test system: galium (catchweed bedstraw, Galium aparine); assay: Test A postemergence; conditions: Galium, post-emergence, 240 h, 1000 g ai/ha, 0 to 100 scale, read-out: Plant response rating, Galium
How it was run: as §2

[16] = test system: giant foxtail (Setaria faberii); assay: Test A postemergence; conditions: Setaria faberi, post-emergence, 240 h, 1000 g ai/ha, 0 to 100 scale, read-out: Plant response rating, Foxtail, Giant
How it was run: as §2

[17] = test system: kochia (Kochia scoparia); assay: Test A postemergence; conditions: Bassia scoparia, post-emergence, 240 h, 1000 g ai/ha, 0 to 100 scale, read-out: Plant response rating, Kochia
How it was run: as §2

[18] = test system: pigweed (Amaranthus retroflexus); assay: Test A postemergence; conditions: Amaranthus retroflexus, post-emergence, 240 h, 1000 g ai/ha, 0 to 100 scale, read-out: Plant response rating, Pigweed
How it was run: as §2

[19] = test system: ragweed (common ragweed, Ambrosia elatior); assay: Test A postemergence; conditions: Ambrosia artemisiifolia, post-emergence, 240 h, 1000 g ai/ha, 0 to 100 scale, read-out: Plant response rating, Ragweed
How it was run: as §2

[20] = test system: wheat (Triticum aestivum); assay: Test A postemergence; conditions: Triticum aestivum, post-emergence, 240 h, 1000 g ai/ha, 0 to 100 scale, read-out: Plant response rating, Wheat
How it was run: as §2

[21] = test system: kochia (Kochia scoparia); assay: Test C postemergence; conditions: Bassia scoparia, post-emergence, Postemergence, scale 0 to 100, read-out: Plant response rating, Kochia
How it was run: (§3)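 Greenhouse test, preemergence on seeded soil or postemergence on 1- to 4-leaf plants. Response is a visual 0-100 rating versus controls, taken 13-15 days after treatment.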

[22] = test system: waterhemp (common waterhemp, Amaranthus rudis); assay: Test C postemergence; conditions: Amaranthus tuberculatus, post-emergence, Postemergence, scale 0 to 100, read-out: Plant response rating, Waterhemp
How it was run: as §3

[23] = test system: wild oat (Avena fatua); assay: Test C postemergence; conditions: Avena fatua, post-emergence, Postemergence, scale 0 to 100, read-out: Plant response rating, Oat, Wild
How it was run: as §3

`Fc1cnc(Oc2c(Br)cccc2Oc2ncc(Cl)cn2)nc1` [Compound 22] was tested, and the pest or weed control at 250 g/ha [1] was 45%, the pest or weed control at 250 g/ha [2] was 100% and the plant injury at 250 g/ha [3] was 45%. It also gave a pest or weed control at 250 g/ha [4] of 98%, a pest or weed control at 1000 g/ha [5] of 90% and a pest or weed control at 1000 g/ha [6] of 100%. It also gave a pest or weed control at 1000 g/ha [7] of 100%, a pest or weed control at 1000 g/ha [8] of 100% and a pest or weed control at 1000 g/ha [9] of 100%. For the same molecule, the pest or weed control at 1000 g/ha [10] was 90%, the pest or weed control at 1000 g/ha [11] was 90% and the pest or weed control at 1000 g/ha [12] was 90%. The pest or weed control at 1000 g/ha [13] was 70%, the Corn plant response rating (crop injury, 0 = no effect, 100 = complete kill) at 1000 g/ha [14] was 70% and the pest or weed control at 1000 g/ha [15] was 90%. For the same molecule, the pest or weed control at 1000 g/ha [16] was 90%, the pest or weed control at 1000 g/ha [17] was 100% and the pest or weed control at 1000 g/ha [18] was 100%. For the same molecule, the pest or weed control at 1000 g/ha [19] was 90%, the plant injury at 1000 g/ha [20] was 70% and the pest or weed control at 31 g/ha ([21]; 31 g ai/ha) was 45%. For the same molecule, the pest or weed control at 62 g/ha ([21]; 62 g ai/ha) was 60%, the pest or weed control at 125 g/ha ([21]; 125 g ai/ha) was 85% and the pest or weed control at 250 g/ha ([21]; 250 g ai/ha) was 90%. It also gave a pest or weed control at 31 g/ha ([22]; 31 g ai/ha) of 70%, a pest or weed control at 62 g/ha ([22]; 62 g ai/ha) of 85% and a pest or weed control at 125 g/ha ([22]; 125 g ai/ha) of 95%. For the same molecule, the pest or weed control at 250 g/ha ([22]; 250 g ai/ha) was 95%, the pest or weed control at 31 g/ha ([23]; 31 g ai/ha) was 0% and the pest or weed control at 62 g/ha ([23]; 62 g ai/ha) was 5%. For the same molecule, the pest or weed control at 125 g/ha ([23]; 125 g ai/ha) was 10% and the pest or weed control at 250 g/ha ([23]; 250 g ai/ha) was 15%.
